Patent US6287794A, “Factor Vlla inhibitors” (Aventis Pharma Deutschland GmbH, priority 1998, dated 2001)
Non-standard residues stand in square brackets, D forms with d. Residues, ends and D or L forms follow the SMILES beside them. *: point of attachment. Phe(4-amidino) = N=C(N)c1ccc(C[C@H](N)C(=O)O)cc1; Arg(NO2) = N=C(NCCC[C@H](N)C(=O)O)N[N+](=O)[O-]; Abu(4-CN) = N#CCC[C@H](N)C(=O)O; Cha = N[C@@H](CC1CCCCC1)C(=O)O; Ala(CN) = N#CC[C@H](N)C(=O)O; Chg = N[C@H](C(=O)O)C1CCCCC1; Alloc = C=CCOC(=O)*

Target: T1, human factor VIIa and TF (Homo sapiens, UniProt P08709)
T1 construct: human factor VIIa and TF
T1 sequence (P08709 213-466 limits assumed): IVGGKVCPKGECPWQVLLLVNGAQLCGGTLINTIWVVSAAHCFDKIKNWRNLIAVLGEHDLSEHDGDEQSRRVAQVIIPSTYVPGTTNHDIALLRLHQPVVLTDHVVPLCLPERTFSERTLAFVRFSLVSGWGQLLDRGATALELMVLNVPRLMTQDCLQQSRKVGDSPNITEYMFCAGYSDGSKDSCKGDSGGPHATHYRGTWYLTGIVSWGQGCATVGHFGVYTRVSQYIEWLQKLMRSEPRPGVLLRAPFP
T1 sequence (P08709 61-212 limits assumed): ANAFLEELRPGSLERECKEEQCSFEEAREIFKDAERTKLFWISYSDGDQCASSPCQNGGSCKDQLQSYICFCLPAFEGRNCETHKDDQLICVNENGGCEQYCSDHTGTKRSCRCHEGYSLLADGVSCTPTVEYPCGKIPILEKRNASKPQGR
T1 sequence (P13726 33-295 partner): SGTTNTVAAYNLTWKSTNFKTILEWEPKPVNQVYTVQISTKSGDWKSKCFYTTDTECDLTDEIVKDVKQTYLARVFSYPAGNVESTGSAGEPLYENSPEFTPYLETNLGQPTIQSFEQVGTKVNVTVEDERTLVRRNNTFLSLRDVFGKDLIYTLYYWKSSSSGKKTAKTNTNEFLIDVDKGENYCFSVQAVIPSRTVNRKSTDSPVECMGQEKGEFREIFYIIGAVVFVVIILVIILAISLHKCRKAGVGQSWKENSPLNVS
Assay: Determination of Ki for FVIIa inhibition (chromogenic assay, substrate S-2288)
Format: biochemical
Details: human factor VIIa 5 nM and TF 10 nM, S-2288 500 μM, 25° C., 15 minute preincubation, pH 8.15; read-out: Factor VIIa inhibitory activities Ki
Experimental: The inhibitory activity (Ki) of each compound towards […] activity was determined using a chromogenic assay essentially as described previously. J. A. Ostrem, F. Al-Obeidi, P. Safar, A. Safarova, S. K. Stringer, M. Patek, M. T. Cross, J. Spoonamore, J. C. LoCascio, P. Kasireddy, D. S. Thorpe, N. Sepetov, M. Lebi, P. Wildgoose, P. Strop, "Discovery of a novel, potent, and specific family of factor Xa inhibitors via combinatorial chemistry". Biochemistry 37 (1998) 1053-1059. Kinetic assays were conducted at 25° C. in half-area microtiter plates (Costar Corp., Cambridge, Mass.) using a kinetic plate reader (Molecular Devices Spectramax 250). A typical assay consisted of 25 μl of human factor VIIa and TF (5 nM and 10 nM, respective final concentration) combined with 40 μl of inhibitor dilutions in 10% DMSO/TBS-PEG buffer (50 mM Tris, 15 mM NaCl, 5 mM CaCl2; 0.05% PEG 8k, pH 8.15). Following a 15 minute preincubation period, the assay was initiated by the addition of 35 μl of the chromogenic substrate S-2288 (D-Ile-Pro-Arg-pNA, Pharmacia Hepar Inc, 500 μM final concentration.). The apparent inhibition constants were calculated from the slope of the progress curves during the linear part of the time course, typically between 1 and 5 min following addition of substrate to the assay. The true Ki was subsequently determined for each compound by correcting for substrate concentration (S) and the Km using the formula Ki=Ki app/(1+(S)/Km). I. H. Segal, Enzyme Kinetics, pp 100-125 (John Wiley & Sons, N.Y., 1975).

Ki | SMILES
63 nM | C=CCOC(=O)N[C@@H](Cc1ccc(C(=N)N)cc1)C(=O)N[C@@H](CCC(=O)O)C(=O)N[C@@H](CCC#N)C(=O)N[C@@H](CC1CCCCC1)C(N)=O [Alloc--pAph--Glu-2-Abu(4-CN)--Cha--NH2] (Alloc-[Phe(4-amidino)]E[Abu(4-CN)][Cha]-NH2)
120 nM | C=CCOC(=O)N[C@@H](Cc1ccc(C(=N)N)cc1)C(=O)N[C@@H](CCC(=O)O)C(=O)N[C@@H](CC#N)C(=O)N[C@@H](CC1CCCCC1)C(N)=O [Alloc--pAph--Glu--Ala(3-CN)--Cha--NH2] (Alloc-[Phe(4-amidino)]E[Ala(CN)][Cha]-NH2)
14 nM | C=CCOC(=O)N[C@@H](Cc1ccc(C(=N)N)cc1)C(=O)N[C@@H](CCC(=O)O)C(=O)N[C@@H](CCCNC(=N)N[N+](=O)[O-])C(=O)N[C@@H](CC1CCCCC1)C(N)=O [Alloc--pAph--Glu--Arg(NO2)--Cha--NH2] (Alloc-[Phe(4-amidino)]E[Arg(NO2)][Cha]-NH2)
46 nM | C=CCOC(=O)N[C@@H](Cc1ccc(C(=N)N)cc1)C(=O)N[C@@H](CCC(=O)O)C(=O)N[C@@H](CCCNC(=N)N)C(=O)N[C@@H](CC1CCCCC1)C(N)=O [Alloc--pAph--Glu--Arg--Cha--NH2, Alloc-pAph-Glu-Arg-Cha-NH2] (Alloc-[Phe(4-amidino)]ER[Cha]-NH2)
238 nM | C=CCOC(=O)N[C@@H](Cc1ccc(C(=N)N)cc1)C(=O)N[C@@H](CCC(=O)O)C(=O)N[C@@H](CCCNC(=N)N)C(=O)N[C@H](C(N)=O)C1CCCCC1 [Alloc--pAph--Glu--Arg--Chg--NH2, Alloc-pAph-Glu-Arg-Chg-NH2] (Alloc-[Phe(4-amidino)]ER[Chg]-NH2)
45 nM | C=CCOC(=O)N[C@@H](Cc1ccc(C(=N)N)cc1)C(=O)N[C@@H](CCC(=O)O)C(=O)N[C@@H](CC(N)=O)C(=O)NC1CCCc2ccccc21 (stereo partly drawn) [Alloc--pAph--Glu--Asn-1,2,3,4-tetrahydro-1-naphthylamide]
21 nM | C=CCOC(=O)N[C@@H](Cc1ccc(C(=N)N)cc1)C(=O)N[C@@H](CCC(=O)O)C(=O)N[C@@H](CC(N)=O)C(=O)NC(C)c1cccc2ccccc12 (stereo partly drawn) [Alloc--pAph--Glu--Asn-1-(1-naphthyl)ethylamide]
31 nM | C=CCOC(=O)N[C@@H](Cc1ccc(C(=N)N)cc1)C(=O)N[C@@H](CCC(=O)O)C(=O)N[C@@H](CC(N)=O)C(=O)NCc1cccc2ccccc12 [Alloc--pAph--Glu--Asn-1-naphthylmethylamide]
49 nM | C=CCOC(=O)N[C@@H](Cc1ccc(C(=N)N)cc1)C(=O)N[C@@H](CCC(=O)O)C(=O)N[C@@H](CC(N)=O)C(=O)NCC(c1ccccc1)c1ccccc1 [Alloc--pAph--Glu--Asn-2,2-diphenylethylamide]
51 nM | C=CCOC(=O)N[C@@H](Cc1ccc(C(=N)N)cc1)C(=O)N[C@@H](CCC(=O)O)C(=O)N[C@@H](CC(N)=O)C(=O)NCc1ccc(F)cc1F [Alloc--pAph--Glu--Asn-2,4-difluorobenzylamide]
22 nM | C=CCOC(=O)N[C@@H](Cc1ccc(C(=N)N)cc1)C(=O)N[C@@H](CCC(=O)O)C(=O)N[C@@H](CC(N)=O)C(=O)NCCc1cccc2ccccc12 [Alloc--pAph--Glu--Asn-2-(1-naphthyl)ethylamide]
52 nM | C=CCOC(=O)N[C@@H](Cc1ccc(C(=N)N)cc1)C(=O)N[C@@H](CCC(=O)O)C(=O)N[C@@H](CC(N)=O)C(=O)NCCc1ccc2ccccc2c1 [Alloc--pAph--Glu--Asn-2-(2-naphthyl)ethylamide]
71 nM | C=CCOC(=O)N[C@@H](Cc1ccc(C(=N)N)cc1)C(=O)N[C@@H](CCC(=O)O)C(=O)N[C@@H](CC(N)=O)C(=O)NCCc1ccccn1 [Alloc--pAph--Glu--Asn-2-(2-pyridyl)ethylamide]
23 nM | C=CCOC(=O)N[C@@H](Cc1ccc(C(=N)N)cc1)C(=O)N[C@@H](CCC(=O)O)C(=O)N[C@@H](CC(N)=O)C(=O)NCCc1cccc(Cl)c1 [Alloc--pAph--Glu--Asn-2-(3-chlorophenyl)ethylamide]
410 nM | C=CCOC(=O)N[C@@H](Cc1ccc(C(=N)N)cc1)C(=O)N[C@@H](CCC(=O)O)C(=O)N[C@@H](CC(N)=O)C(=O)NCCN1CCOCC1 [Alloc--pAph--Glu--Asn-2-(4-morpholinyl)ethylamide]
